According to patent US8476434B2, “Protein kinase modulators and method of use” (Amgen Inc., priority 2004, dated 2013):
pIC50: −log10 of the molar value.

Target: T1, LCK KD GST (225-509) (Homo sapiens, UniProt P06239)
T1 construct: LCK KD GST (225-509); GST
Assay: LCK Homogenous Time Resolved Fluorescent (HTRF) kinase assay
Format: biochemical
Protocol: The LCK HTRF assay begins with LCK in the presence of ATP phosphorylating the biotinylated peptide Gastrin. The reaction incubates for 90 min. To quench the assay detection reagents are added which both stop the reaction by diluting out the enzyme and chelating the metals due to the presence of EDTA. Once the detection reagents are added the assay incubates for 30 min to allow for equilibration of the detection reagents.
Buffer conditions are as follows: 50 mM HEPES pH 7.5, 50 mM NaCl, 20 mM MgCl, 5 mM MnCl, 2 mM DTT, 0.05% BSA.
The assay is quenched and stopped with 160 μL of detection reagent. Detection reagents are as follows: Buffer made of 50 mM Tris, pH 7.5, 100 mM NaCl, 3 mM EDTA, 0.05% BSA, 0.1% Tween20.
The assay plate is read in either a Discovery or a RubyStar.

T1 sequence (P06239 225-509): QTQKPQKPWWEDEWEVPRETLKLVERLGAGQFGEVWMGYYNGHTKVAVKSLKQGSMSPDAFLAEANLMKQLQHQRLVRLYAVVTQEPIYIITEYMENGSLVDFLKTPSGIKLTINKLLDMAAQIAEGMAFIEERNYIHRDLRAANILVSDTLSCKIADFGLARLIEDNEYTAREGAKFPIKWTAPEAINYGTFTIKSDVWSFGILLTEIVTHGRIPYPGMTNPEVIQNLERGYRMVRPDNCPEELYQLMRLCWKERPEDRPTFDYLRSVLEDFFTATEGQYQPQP

SMILES	pIC50
CNc1nccc(-c2cccnc2Oc2cc(C(=O)Nc3cc(C(F)(F)F)ccc3N3CCCCC3)ccc2C)n1	> 6.00
CNc1nccc(-c2cccnc2Oc2cc(C(=O)Nc3cc(C(F)(F)F)ccc3N(C)C3CCN(C)CC3)c(F)cc2C)n1 [2-fluoro-4-methyl-5-((3-(2-(methylamino)-4-pyrimidinyl)-2-pyridinyl)oxy)-N-(2-(methyl(1-methyl-4-piperidinyl)amino)-5-(trifluoromethyl)phenyl)benzamide]	> 6.00
CNc1nccc(-c2cccnc2Oc2ccc(F)c(C(=O)Nc3cc(C(F)(F)F)ccc3N(C)C3CCN(C)C3)c2)n1 (stereo not shown) [2-fluoro-5-((3-(2-(methylamino)-4-pyrimidinyl)-2-pyridinyl)oxy)-N-(2-(methyl(1-methyl-3-pyrrolidinyl)amino)-5-(trifluoromethyl)phenyl)benzamide]	> 6.00
CNc1nccc(-c2cccnc2Oc2ccc(F)c(C(=O)Nc3cccc(C(C)C)c3)c2)n1 [2-fluoro-5-((3-(2-(methylamino)-4-pyrimidinyl)-2-pyridinyl)oxy)-N-(3-(1-methylethyl)phenyl)benzamide]	> 6.00
CNc1nccc(-c2cccnc2Oc2cccc(NC(=O)c3cc(Cl)cc(Cl)c3)c2)n1 [3,5-dichloro-N-(3-((3-(2-(methylamino)-4-pyrimidinyl)-2-pyridinyl)oxy)phenyl)benzamide]	> 6.00
CNc1cc(-c2cccnc2Oc2cc(NC(=O)c3cccc(C(C)C)c3)ccc2C)ccn1 [3-(1-methylethyl)-N-(4-methyl-3-((2′-(methylamino)-3,4′-bipyridin-2-yl)oxy)phenyl)benzamide]	> 6.00
CCN(CC)CCNc1nccc(-c2cccnc2Oc2cc(C(=O)Nc3cc(C(F)(F)F)ccc3N3CCOCC3)ccc2C)n1 [3-((3-(2-((2-(diethylamino)ethyl)amino)-4-pyrimidinyl)-2-pyridinyl)oxy)-4-methyl-N-(2-(4-morpholinyl)-5-(trifluoromethyl)phenyl)benzamide]	> 6.00
CNc1nccc(-c2cccnc2Oc2cccc(C(=O)Nc3cccc(C(C)C)c3)c2)n1 [3-((3-(2-(methylamino)-4-pyrimidinyl)-2-pyridinyl)oxy)-N-(3-(1-methylethyl)phenyl)benzamide]	> 6.00
CCNc1ncnc(-c2cccnc2Oc2cc(C(=O)Nc3cccc(C(C)C)c3)ccc2C)n1 [3-((3-(4-(ethylamino)-1,3,5-triazin-2-yl)-2-pyridinyl)oxy)-4-methyl-N-(3-(1-methylethyl)phenyl)benzamide]	> 6.00
CC(C)c1cccc(NC(=O)c2cccc(Nc3ncccc3-c3ncnc(N)n3)c2)c1 [3-((3-(4-amino-1,3,5-triazin-2-yl)-2-pyridinyl)amino)-N-(3-(1-methylethyl)phenyl)benzamide]	> 6.00
CNc1nccc(-c2cc(N(C)CCCN(C)C)cnc2Oc2cc(C(=O)Nc3cccc(C(C)C)c3)ccc2C)n1 [3-((5-((3-(dimethylamino)propyl)(methyl)amino)-3-(2-(methylamino)-4-pyrimidinyl)-2-pyridinyl)oxy)-4-methyl-N-(3-(1-methylethyl)phenyl)benzamide]	> 6.00
CNc1nccc(-c2cccnc2Oc2cc(NC(=O)c3cccc(N(C)C)c3)cc(C(F)(F)F)c2)n1 [3-(dimethylamino)-N-(3-((3-(2-(methylamino)-4-pyrimidinyl)-2-pyridinyl)oxy)-5-(trifluoromethyl)phenyl)benzamide]	> 6.00
CNc1nccc(-c2cccnc2Oc2cc(Br)cc(C(=O)Nc3cc(C(F)(F)F)ccc3N(C)[C@H]3CCN(C)C3)c2)n1 [3-bromo-5-((3-(2-(methylamino)-4-pyrimidinyl)-2-pyridinyl)oxy)-N-(2-(methyl((3S)-1-methyl-3-pyrrolidinyl)amino)-5-(trifluoromethyl)phenyl)benzamide]	> 6.00
CNc1nccc(-c2cccnc2Oc2cc(Br)cc(C(=O)Nc3cccc(C(C)C)c3)c2)n1 [3-bromo-5-((3-(2-(methylamino)-4-pyrimidinyl)-2-pyridinyl)oxy)-N-(3-(1-methylethyl)phenyl)benzamide]	> 6.00
C#Cc1cc(Oc2ncccc2-c2ccnc(NC)n2)cc(C(=O)Nc2cccc(C(F)(F)F)c2)c1 [3-ethynyl-5-((3-(2-(methylamino)-4-pyrimidinyl)-2-pyridinyl)oxy)-N-(3-(trifluoromethyl)phenyl)benzamide]	> 6.00
CNc1ncnc(-c2cccnc2Oc2cc(F)cc(C(=O)Nc3cccc(C(C)C)c3)c2)n1 [3-fluoro-5-((3-(4-(methylamino)-1,3,5-triazin-2-yl)-2-pyridinyl)oxy)-N-(3-(1-methylethyl)phenyl)benzamide]	> 6.00
CNc1nccc(-c2cc(Cl)cnc2Oc2c(C)cccc2C)n1 [4-(5-chloro-2-((2,6-dimethylphenyl)oxy)-3-pyridinyl)-N-methyl-2-pyrimidinamine]	> 6.00

SMILES	pIC50
COc1ccc(C(=O)Nc2cccc(C(F)(F)F)c2)cc1Nc1ncccc1-c1ccncn1 [4-(methyloxy)-3-((3-(4-pyrimidinyl)-2-pyridinyl)amino)-N-(3-(trifluoromethyl)phenyl)benzamide]	> 6.00
CNc1nccc(-c2cccnc2Oc2cc(C(=O)Nc3cc(C(F)(F)F)ccc3N3CCCCC3)ccc2Cl)n1 [4-chloro-3-((3-(2-(methylamino)-4-pyrimidinyl)-2-pyridinyl)oxy)-N-(2-(1-piperidinyl)-5-(trifluoromethyl)phenyl)benzamide]	> 6.00
CNc1nccc(-c2cccnc2Oc2cc(C(=O)Nc3cc(C(F)(F)F)ccc3N3CCCCC3)ccc2F)n1 [4-fluoro-3-((3-(2-(methylamino)-4-pyrimidinyl)-2-pyridinyl)oxy)-N-(2-(1-piperidinyl)-5-(trifluoromethyl)phenyl)benzamide]	> 6.00
CC(C)c1cccc(NC(=O)c2ccc(F)c(Nc3ncccc3-c3ncnc(NCCCn4ccnc4)n3)c2)c1 [4-fluoro-3-((3-(4-((3-(1H-imidazol-1-yl)propyl)amino)-1,3,5-triazin-2-yl)-2-pyridinyl)amino)-N-(3-(1-methylethyl)phenyl)benzamide]	> 6.00
COc1cc(-c2cccnc2Oc2cc(C(=O)Nc3cccc(C(F)(F)F)c3)ccc2C)ccn1 [4-methyl-3-((2′-(methyloxy)-3,4′-bipyridin-2-yl)oxy)-N-(3-(trifluoromethyl)phenyl)benzamide]	> 6.00
CNc1nccc(-c2cccnc2Oc2cc(C(=O)Nc3cc(OC[C@H]4CCCN4C)cc(C(F)(F)F)c3)ccc2C)n1 [4-methyl-3-((3-(2-(methylamino)-4-pyrimidinyl)-2-pyridinyl)oxy)-N-(3-((((2R)-1-methyl-2-pyrrolidinyl)methyl)oxy)-5-(trifluoromethyl)phenyl)benzamide]	> 6.00
CNc1nccc(-c2cccnc2Oc2cc(C(=O)Nc3cccc(OCc4ccccc4)c3)ccc2C)n1 [4-methyl-3-((3-(2-(methylamino)-4-pyrimidinyl)-2-pyridinyl)oxy)-N-(3-((phenylmethyl)oxy)phenyl)benzamide]	> 6.00
CNc1nccc(-c2cccnc2Oc2cc(C(=O)Nc3cccc(Cc4ccccc4)c3)ccc2C)n1 [4-methyl-3-((3-(2-(methylamino)-4-pyrimidinyl)-2-pyridinyl)oxy)-N-(3-(phenylmethyl)phenyl)benzamide]	> 6.00
CNc1nccc(-c2cccnc2Oc2cc(C(=O)Nc3ccc(C(C)C)cc3)ccc2C)n1 [4-methyl-3-((3-(2-(methylamino)-4-pyrimidinyl)-2-pyridinyl)oxy)-N-(4-(1-methylethyl)phenyl)benzamide]	> 6.00
CNc1nccc(-c2cccnc2Oc2cc(C(=O)Nc3cc(-c4ccccc4)ccc3OC)ccc2C)n1 [4-methyl-3-((3-(2-(methylamino)-4-pyrimidinyl)-2-pyridinyl)oxy)-N-(4-(methyloxy)-1,1′-biphenyl-3-yl)benzamide]	> 6.00
CNc1nccc(-c2cccnc2Oc2cc(C(=O)N[C@H](C)c3ccccc3)ccc2C)n1 [4-methyl-3-((3-(2-(methylamino)-4-pyrimidinyl)-2-pyridinyl)oxy)-N-((1R)-1-phenylethyl)benzamide]	> 6.00
CNc1nccc(-c2cccnc2Oc2cc(C(=O)NCc3cccc(C(F)(F)F)c3)ccc2C)n1 [4-methyl-3-((3-(2-(methylamino)-4-pyrimidinyl)-2-pyridinyl)oxy)-N-((3-(trifluoromethyl)phenyl)methyl)benzamide]	> 6.00
CNc1nccc(-c2cc(N3CCN(C)CC3)cnc2Oc2cc(C(=O)Nc3cccc(C(C)C)c3)ccc2C)n1 [4-methyl-3-((3-(2-(methylamino)-4-pyrimidinyl)-5-(4-methyl-1-piperazinyl)-2-pyridinyl)oxy)-N-(3-(1-methylethyl)phenyl)benzamide]	> 6.00
CNc1nccc(-c2cc(N3CCOCC3)cnc2Oc2cc(C(=O)Nc3cccc(C(C)C)c3)ccc2C)n1 [4-methyl-3-((3-(2-(methylamino)-4-pyrimidinyl)-5-(4-morpholinyl)-2-pyridinyl)oxy)-N-(3-(1-methylethyl)phenyl)benzamide]	> 6.00
CNc1ncnc(-c2cccnc2Oc2cc(C(=O)Nc3cc(C(F)(F)F)ccc3N3CCCCC3)ccc2C)n1 [4-methyl-3-((3-(4-(methylamino)-1,3,5-triazin-2-yl)-2-pyridinyl)oxy)-N-(2-(1-piperidinyl)-5-(trifluoromethyl)phenyl)benzamide]	> 6.00
CNc1ncnc(-c2cccnc2Oc2cc(C(=O)Nc3cccc(C(F)(F)F)c3C)ccc2C)n1 [4-methyl-3-((3-(4-(methylamino)-1,3,5-triazin-2-yl)-2-pyridinyl)oxy)-N-(2-methyl-3-(trifluoromethyl)phenyl)benzamide]	> 6.00
CNc1ncnc(-c2cccnc2Oc2cc(C(=O)Nc3cccc(C(C)C)c3)ccc2C)n1 [4-methyl-3-((3-(4-(methylamino)-1,3,5-triazin-2-yl)-2-pyridinyl)oxy)-N-(3-(1-methylethyl)phenyl)benzamide]	> 6.00
